Data published in patent US9693556B2, “Herbicidal pyridazinone derivatives” (SYNGENTA LIMITED, priority 2011, dated 2017).

What was measured:
Assay type in all cases: in vivo
[1] = test system: Ipomoea hederacea (IPOHE); assay: Post-emergence herbicidal glasshouse test on Ipomoea hederacea; conditions: post-emergence, 1000 g/h, evaluated after 13 days
In short: (§1)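 Plants sprayed 1 day (pre-emergence) or 8 days (post-emergence) after sowing with compound at 1000 g/h in acetone/water 50:50 with 0.5% Tween 20; glasshouse 24/16° C, 14 h light, 65% humidity. Damage assessed after 13 days, scored 1–5 (5 = 80-100%, 1 = 0-19%).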

Solanum nigrum (SOLNI) [2] = assay: Post-emergence herbicidal glasshouse test on Solanum nigrum; conditions: post-emergence, 1000 g/h, evaluated after 13 days
In short: as §1

[3] = test system: Echinochloa crus-galli (ECHCG); assay: Pre-emergence herbicidal glasshouse test on Echinochloa crus-galli; conditions: pre-emergence, 1000 g/h, evaluated after 13 days
In short: as §1

[4] = test system: Amaranthus retoflexus (AMARE); assay: Pre-emergence herbicidal glasshouse test on Amaranthus retoflexus; conditions: pre-emergence, 1000 g/h, evaluated after 13 days
In short: as §1

[5] = test system: Ipomoea hederacea (IPOHE); assay: Pre-emergence herbicidal glasshouse test on Ipomoea hederacea; conditions: pre-emergence, 1000 g/h, evaluated after 13 days
In short: as §1

Solanum nigrum (SOLNI) [6] = assay: Pre-emergence herbicidal glasshouse test on Solanum nigrum; conditions: pre-emergence, 1000 g/h, evaluated after 13 days
In short: as §1

[7] = test system: Alopecurus myosuroides (ALOMY); assay: Post-emergence herbicidal glasshouse test on Alopecurus myosuroides; conditions: post-emergence, 1000 g/h, evaluated after 13 days
In short: as §1

Setaria faberi (SETFA) [8] = assay: Pre-emergence herbicidal glasshouse test on Setaria faberi; conditions: pre-emergence, 1000 g/h, evaluated after 13 days
In short: as §1

[9] = test system: Amaranthus retoflexus (AMARE); assay: Post-emergence herbicidal glasshouse test on Amaranthus retoflexus; conditions: post-emergence, 1000 g/h, evaluated after 13 days
In short: as §1

Setaria faberi (SETFA) [10] = assay: Post-emergence herbicidal glasshouse test on Setaria faberi; conditions: post-emergence, 1000 g/h, evaluated after 13 days
In short: as §1

[11] = test system: Alopecurus myosuroides (ALOMY); assay: Pre-emergence herbicidal glasshouse test on Alopecurus myosuroides; conditions: pre-emergence, 1000 g/h, evaluated after 13 days
In short: as §1

[12] = test system: Echinochloa crus-galli (ECHCG); assay: Post-emergence herbicidal glasshouse test on Echinochloa crus-galli; conditions: post-emergence, 1000 g/h, evaluated after 13 days
In short: as §1

SMILES | POST Application IPOHE herbicidal damage (five point scale) [1] | POST Application SOLNI herbicidal damage (five point scale) (Solanum nigrum (SOLNI) [2]) | PRE Application ECHCG herbicidal damage (five point scale) [3] | PRE Application AMARE herbicidal damage (five point scale) [4] | PRE Application IPOHE herbicidal damage (five point scale) [5] | PRE Application SOLNI herbicidal damage (five point scale) (Solanum nigrum (SOLNI) [6]) | POST Application ALOMY herbicidal damage (five point scale) [7] | PRE Application SETFA herbicidal damage (five point scale) (Setaria faberi (SETFA) [8]) | POST Application AMARE herbicidal damage (five point scale) [9] | POST Application SETFA herbicidal damage (five point scale) (Setaria faberi (SETFA) [10]) | PRE Application ALOMY herbicidal damage (five point scale) [11] | POST Application ECHCG herbicidal damage (five point scale) [12] | other results
Cn1ncc(-n2ccc(C(F)(F)F)c(-c3ccccc3C(F)(F)F)c2=O)c(O)c1=O [Compound 1.052] | 5 (5=80-100% damage) | 5 (5=80-100% damage) | 5 (5=80-100% damage) | 5 (5=80-100% damage) | 1 (1=0-19% damage) | 5 (5=80-100% damage) | 4 (4=60-79% damage) | 4 (4=60-79% damage) | 5 (5=80-100% damage) | 5 (5=80-100% damage) | 4 (4=60-79% damage) | 5 (5=80-100% damage) | 
Cc1c(-c2cnn(CC3CC3)c(=O)c2O)ccc(S(C)(=O)=O)c1C1=NOCC1 [Compound 1.120] | 5 (5=80-100% damage) | 5 (5=80-100% damage) | 5 (5=80-100% damage) | 5 (5=80-100% damage) | 4 (4=60-79% damage) | 4 (4=60-79% damage) | 5 (5=80-100% damage) | 4 (4=60-79% damage) | 5 (5=80-100% damage) | 5 (5=80-100% damage) | 3 (3=40-59% damage) | 5 (5=80-100% damage) | 
C=Cc1nn(C)c(=O)c(O)c1-c1ccc(S(C)(=O)=O)c(C2=NOCC2)c1C [Compound 2.020] | 5 (5=80-100% damage) | 5 (5=80-100% damage) | 5 (5=80-100% damage) | 5 (5=80-100% damage) | 1 (1=0-19% damage) | 5 (5=80-100% damage) | 4 (4=60-79% damage) | 1 (1=0-19% damage) | 5 (5=80-100% damage) | 4 (4=60-79% damage) | 4 (4=60-79% damage) | 4 (4=60-79% damage) | 
Cn1ncc(-c2cc3cc(N4CCOCC4)cnc3nc2C(F)(F)F)c(O)c1=O [Compound 1.164] |  |  |  |  |  |  |  |  |  |  |  |  | herbicidal damage, POST Application IPOHE ([1]; five point scale): 5 (5=80-100% damage); herbicidal damage, POST Application SOLNI (Solanum nigrum (SOLNI) [2]; five point scale): 5 (5=80-100% damage); herbicidal damage, PRE Application ECHCG ([3]; five point scale): 4 (4=60-79% damage); herbicidal damage, PRE Application AMARE ([4]; five point scale): 3 (3=40-59% damage); herbicidal damage, PRE Application IPOHE ([5]; five point scale): 4 (4=60-79% damage); herbicidal damage, PRE Application SOLNI (Solanum nigrum (SOLNI) [6]; five point scale): 2 (2=20-39% damage); herbicidal damage, POST Application ALOMY ([7]; five point scale): 1 (1=0-19% damage); herbicidal damage, PRE Application SETFA (Setaria faberi (SETFA) [8]; five point scale): 2 (2=20-39% damage); herbicidal damage, POST Application AMARE ([9]; five point scale): 5 (5=80-100% damage); herbicidal damage, POST Application SETFA (Setaria faberi (SETFA) [10]; five point scale): 5 (5=80-100% damage); herbicidal damage, PRE Application ALOMY ([11]; five point scale): 1 (1=0-19% damage); herbicidal damage, POST Application ECHCG ([12]; five point scale): 5 (5=80-100% damage)
